Experiments:
[1] = system: Npc1−/− mice; test: Observation of coat condition and disease symptoms; type: in vivo, mouse; conditions: Npc1−/− mice treated from weaning
Text: Separate groups of Npc1^-/- and Npc1^+/+ mice were left untreated, as controls.

[2] = system: patient with progressive gait disorder; test: Case study Example 26, quantitative gait analysis; type: in vivo, human
[3] = system: Npc1−/− mouse; test: Lifespan; type: in vivo; conditions: 0.1 g/kg from 3 weeks of age
Text: Separate groups of Npc1^−/− and Npc1^+/+ mice were left untreated, as controls.

[4] = system: patients with ataxia with oculomotor apraxia type 4; test: Case study, ataxia with oculomotor apraxia type 4; type: in vivo, human; conditions: AOA4 youngest sibling
Text: In this case study, four patients (male siblings) suffered from, and were later diagnosed with, ataxia with oculomotor apraxia type 4. The older three siblings […], at the time of disease onset. […] The older siblings began treatment with acetyl-leucine […], respectively, and have been on the treatment for approximately four years. No long-term clinical data is available for these three patients.
The youngest sibling was […] at the time of onset. […] No long-term clinical data is available for the youngest sibling.

[5] = system: patient with corticobasal syndrome; test: Case study, corticobasal syndrome; type: in vivo, human
Protocol: Gait analysis was performed before treatment commenced.

[6] = system: person with gait problems and postural imbalance; test: Case study Example 25, quantitative gait analysis; type: in vivo, human
Protocol: The patient was then treated with Tanganil® (500 mg) in 3 separate doses throughout the day—1 g upon waking, 1 g prior to lunch and 1 g prior to the evening meal for one week, followed by 2 g upon waking, 1.5 g prior to lunch and 1.5 g prior to the evening meal.

[7] = system: Mucolipidosis Type IIIA (MLIIIA) patient fibroblasts; test: Lysosomal volume via LysoTracker; type: cell-based, human; conditions: 1 mM, 6 days

With `CC(=O)NC(CC(C)C)C(=O)O` (racemic) [acetyl-DL-leucine] the “Delay of discernible disease symptoms vs untreated Npc1−/− littermates” value [1] was “two”, the “Gait (patient and spouse report)” value ([2]; 3 gram per day for two weeks) was “considerable improvement of gait” and the “Functioning and quality of living (spouse report)” value ([2]; Day 42, 3 gram per day restarted) was “dramatic improvement”. For the same compound, the Self-chosen gait velocity ([2]; Day 42, from 55 cm/sec) was 62 cm/s, the Maximal gait velocity ([2]; Day 42, from 84 cm/sec) was 130 cm/s and the “Symptoms after medication was stopped” value ([2]; in vivo) was “worsening of symptoms”. For the same compound, the Lifespan [3] was “small but statistically significant increase in lifespan”, the “Fine motor skills and speech (reported by mother)” value [4] was “improved fine motor skills and improved speech at each age compared to their older siblings” and the Frequency of falls ([5]; after 20 days) was “significant reduction in the frequency of falls”. For the same compound, the “Gait analysis parameters (summary)” value ([5]; after 20 days) was “objective improvement in gait analysis parameters”, the Dizziness symptoms ([5]; after 20 days, 3 g then 5 g per day) was “improvement of dizziness symptoms” and the Dizziness after suspension ([5]; two days after suspension of treatment) was “increase of dizziness symptoms”. For the same compound, the Tolerability ([6]; 3 g/day one week then 5 g/day) was “very well tolerated”, the “Gait and imbalance (patient and child report)” value ([6]; 3 weeks after beginning treatment) was “gait and imbalance was significantly improved” and the “% of the time in the gait cycle in which both feet are in contact with the ground” value ([6]; after 3 weeks' treatment) was 25.5%. The Cadence ([6]; after 3 weeks' treatment) was 100 steps/minute, the “Coefficient of variation (CV) of stride time” value ([6]; after 3 weeks' treatment) was 1.8 and the Maximum walking speed ([6]; after 3 weeks' treatment) was 157 cm/s. The Natural walking speed ([6]; after 3 weeks' treatment) was 96 cm/s, the Spreading width ([6]; after 3 weeks' treatment) was 8.1 cm and the Step cycle length ([6]; after 3 weeks' treatment) was 116 cm. For the same compound, the “LysoTracker fluorescence vs untreated disease fibroblasts” value [7] was “trend in reducing LysoTracker fluorescence toward control level”.

Reference: patent publication US12458614B2, “Therapeutic agents for improved mobility and cognitive function and for treating neurodegenerative diseases and lysosomal storage disorders” (priority 2017, dated 2025)
